In the NIST ThermoML archive (doi:10.1016/j.jct.2010.10.009):
Numbers after ± are expanded uncertainties.

Details: 298.15 K; Crystal; Vacuum Sublimation Drop (Calvet Microcalorimeter)

With `c1ccc2c(c1)CCc1ccccc1C2` [1,2:4,5-dibenzocycloheptane] the “molar enthalpy of sublimation” value was 24.8 ± 0.956 kcal/mol.
